Laboratory results published in patent publication EP0037516A1, “N-omega substituted derivatives of 1-Desamino-vasopressin analogs” (VEGA LABORATORIES, INC., priority 1980, dated 1981).
Marks after values point to notes of the source that are not given here. *1 amine or outer side, *2 acyl side, *3 side chain or, on linkers, in order; H or OH if unused. Where a SMILES comes first, the peptide text is derived from it. Bridges are numbered along the chain shown (N, C = ends). Side-chain parts run from the residue outwards. [ ]: non-standard residue; d: D form. Thz = O=C(O)[C@@H]1CSCN1; X1 = O=C(CCC[*:2])[*:1]; Mpa = O=C(O)CCS

Legend:
[1] = Antidiuretic assay in rats, calibrated against arginine-vasopressin; type: in vivo, male Sprague-Dawley rats; conditions: for Peak Potency (antidiuretic activity): 200g male Sprague-Dawley rats, calibrated against arginine-vasopressin; for Mean Peak Potency (Product) F: antidiuretic activity, peak potency multiplied by F; for Ratio of Half-Life of Compound to Parent Half-Life (F): antidiuretic response; for antidiuretic activity (in words): comment on Table 4
[2] = Pressor assay in rats, calibrated against arginine-vasopressin; type: in vivo, male Sprague-Dawley rats; conditions: for Peak Potency (pressor activity): 200g male Sprague-Dawley rats, calibrated against arginine-vasopressin; for Mean Peak Potency (Product) F: pressor activity, peak potency multiplied by F; for Ratio of Half-Life of Compound to Parent Half-Life (F): pressor response; for pressor activity (in words): comment on Table 3
[3] = test system: Factor VIII; test: Factor VIII release, clotting assay in male canine citrated plasma; type: in vivo; conditions: for Factor VIII Releasing Activity: male canine citrated plasma, calibrated against desmopressin; for Factor VIII releasing activity (in words): comment on Table 5
Protocol: Pressor and antidiuretic assays of the compounds of Examples I-IV were carried out in 200g body weight, male Sprague-Dawley rats using the techniques reported by Schaechtelin et al in "Enhancement of the Activity of Angiotensin II by Certain Cations," Molec. Pharmacol., 10, 57-67 (1974) and Cort et al in "Role of the Disulfide Bridge and the C-Terminal Tripeptide in the Anti-diuretic Action of Vasopressin in Man and the Rat", Kidney Internat. , 8, 292-302 (1975), with calibration of responses against a 3-point curve using highly purified arginine-vasopressin of known activity. Similar tests were performed on known vasopressin analogs for purposes of comparison. In addition, the release of Factor VIII by the compounds of Examples I-IV was tested in male canine citrated plasna using the clotting assay described by Prowse et al, in Brit. J. Haematol., 41, 437 (1979), and the results were calibrated against the Factor VIII releasing activity of desmopressin. In all cases, the half-lives of the responses were compared to the standard at equi-peak-potent levels.

[4] = test system: Factor VIII; test: Factor VIII releasing activity in pentothal-anesthetized dogs, standard clotting assay; type: in vivo; conditions: for Factor VIII Releasing Activity: dogs
Protocol: The 9-Ala-NH2 analogs of Examples XII and XIII were evaluated for ability to stimulate production of Factor VIII by administration to pentothal-anesthestized dogs. These analogs, as well as desmopressin used as a control, were administered i.v. into the external jugular vein at a dose of 10 meg/kg body weight. Factor VIII analysis was performed by standard clotting assay (using normal dog plasma as 100% clotting and severely hemophilic dog plasma as 0% for the standard curve) just prior to injection, and at periodic intervals for up to 4 hours after injection.

[5] = as compared to [2-Phe,8-Lys]-vasopressin
[6] = as compared to [8-Lys]-vasopressin (footnote *)
[7] = as compared to 1-desamino-[8-Lys]-vasopressin (footnote ***)
[8] = Pre-Injection, normal dog plasma = 100% clotting
[9] = no comparator footnote (parent itself)

Row | Molecule | Peak Potency (antidiuretic activity) [1] [IU/mg] | Mean Peak Potency (Product) F [1] | Ratio of Half-Life of Compound to Parent Half-Life (F) ([1]; comparator not given) | Peak Potency (pressor activity) [2] [IU/mg] | Mean Peak Potency (Product) F [2] | Factor VIII Releasing Activity [3] [%] | antidiuretic activity (in words) [1] | pressor activity (in words) [2] | other results
1 | NCCCC[C@H](NC(=O)[C@@H]1CCCN1C(=O)[C@@H]1CSSCCC(=O)N[C@@H](Cc2ccccc2)C(=O)N[C@@H](Cc2ccccc2)C(=O)N[C@@H](CCC(N)=O)C(=O)N[C@@H](CC(N)=O)C(=O)N1)C(=O)NCC(N)=O [1-desamino-[2-Phe, 8-Lys]-vasopressin, 1-desamino-[2-Phe, 8-Lys]vasopressin, reference compound] ([Mpa]FFQNCPKG-NH2; disulfide 1-6) | 30 | 45 | 1.5 | 45 | 67.5 | – | – | – | Ratio of Half-Life of Compound to Parent Half-Life (F) [2, 5]: 1.5**
2 | NCCCC[C@H](NC(=O)[C@@H]1CCCN1C(=O)[C@@H]1CSSCCC(=O)N[C@@H](Cc2ccc(O)cc2)C(=O)N[C@@H](Cc2ccccc2)C(=O)N[C@@H](CCC(N)=O)C(=O)N[C@@H](CC(N)=O)C(=O)N1)C(=O)NCC(N)=O [1-desamino-[8-Lys]-vasopressin, reference compound] | 300 | 450 | 1.5 | 126 | 189 | – | – | – | Ratio of Half-Life of Compound to Parent Half-Life (F) [2, 6]: 1.5*
3 | NCC(=O)NCCCC[C@H](NC(=O)[C@@H]1CCCN1C(=O)[C@@H]1CSSCCC(=O)N[C@@H](Cc2ccccc2)C(=O)N[C@@H](Cc2ccccc2)C(=O)N[C@@H](CCC(N)=O)C(=O)N[C@@H](CC(N)=O)C(=O)N1)C(=O)NCC(N)=O [Example I, l-Desamino-[2-Phe, 8-N^ε-Lys(Gly)]-Vasopressin] ([Mpa]FFQNCPK(Gly)G-NH2; disulfide 1-6) | 6 | 24 | 4.0 | 6.9 | 60 | 101 | low antidiuretic activity | prolonged pressor activity of higher potency than that of tGLVP | Ratio of Half-Life of Compound to Parent Half-Life (F) [2, 5]: 8.7**
4 | NCC(=O)NCC(=O)NCC(=O)NCCCC[C@H](NC(=O)[C@@H]1CCCN1C(=O)[C@@H]1CSSCCC(=O)N[C@@H](Cc2ccc(O)cc2)C(=O)N[C@@H](Cc2ccccc2)C(=O)N[C@@H](CCC(N)=O)C(=O)N[C@@H](CC(N)=O)C(=O)N1)C(=O)NCC(N)=O [Example II, 1-Desamino-[8-N^ε-Lys(Gly-Gly-Gly)]-Vasopressin] | 8 | 44 | 5.5 | 15 | 157.5 | 104 | low antidiuretic activity | prolonged pressor activity of higher potency than that of tGLVP | Ratio of Half-Life of Compound to Parent Half-Life (F) [2, 7]: 10.5***
5 | CC[C@H](C)[C@@H]1NC(=O)[C@H](Cc2ccc(O)cc2)NC(=O)CCSSC[C@@H](C(=O)N2CCC[C@H]2C(=O)N[C@H](CCCCNC(=O)CN)C(=O)NCC(N)=O)NC(=O)[C@H](CC(N)=O)NC(=O)[C@H](CCC(N)=O)NC1=O [Example III, 1-Desamino-[8-D-N^ε-Lys(Gly)]-Vasotocin] ([Mpa]YIQNCP[dK](Gly)G-NH2; disulfide 1-6) | 290 | 1508 | – | 0.1 | – | 165 | considerable antidiuretic activity | substantially devoid of pressor activity | Factor VIII releasing activity (in words) [3]: significant activity in releasing Factor VIII; Ratio of Half-Life of Compound to Parent Half-Life (F) ([1]; as compared to 1-desamino-[8-Lys]-vasopressin (footnote *)): 5.2*
6 | CC(C)C[C@H](N)C(=O)NCCCC[C@H](NC(=O)[C@@H]1CSCN1C(=O)[C@@H]1CSCCCC(=O)N[C@@H](Cc2ccc(O)cc2)C(=O)N[C@@H](Cc2ccccc2)C(=O)N[C@@H](CCC(N)=O)C(=O)N[C@@H](CC(N)=O)C(=O)N1)C(=O)NCC(N)=O [Example IV, 1-Desamino-1-monocarba-[7-thioPro, 8-NE-Lys(Leu)]-Vasopressin] (YFQNC[Thz]K(Leu)G-NH2; linker N-5 via X1) | 450 | 3015 | 6.7 | 350 | 3675 | 285 | considerable antidiuretic activity | prolonged pressor activity of higher potency than that of tGLVP | Factor VIII releasing activity (in words) [3]: significant activity in releasing Factor VIII; Ratio of Half-Life of Compound to Parent Half-Life (F) [2, 7]: 10.5***
7 | C[C@@H](NC(=O)[C@H](CCCCNC(=O)CNC(=O)CNC(=O)CN)NC(=O)[C@@H]1CCCN1C(=O)[C@@H]1CSSCCC(=O)N[C@@H](Cc2ccc(O)cc2)C(=O)N[C@@H](Cc2ccccc2)C(=O)N[C@@H](CCC(N)=O)C(=O)N[C@@H](CC(N)=O)C(=O)N1)C(N)=O [Example XII, 1-Desamino-[8-N^9-Lys(Gly-Gly-Gly), 9-D-Ala]-vasopressin] ([Mpa]YFQNCPK([Gly-Gly-Gly])[dA]-NH2; disulfide 1-6) | – | – | – | – | – | – | – | – | Factor VIII Releasing Activity ([4]; 15 min. after i.v. 10 meg/kg): 110%; Factor VIII Releasing Activity ([4]; 60 min. after i.v. 10 meg/kg): 165%; Factor VIII Releasing Activity ([4]; 120 min. after i.v. 10 meg/kg): 185%; Factor VIII Releasing Activity ([4]; 240 min. after i.v. 10 meg/kg): 220%; Factor VIII Releasing Activity [4, 8]: 100%
8 | C[C@H](NC(=O)[C@@H](CCCCNC(=O)CNC(=O)CNC(=O)CN)NC(=O)[C@@H]1CCCN1C(=O)[C@@H]1CSSCCC(=O)N[C@@H](Cc2ccc(O)cc2)C(=O)N[C@@H](Cc2ccccc2)C(=O)N[C@@H](CCC(N)=O)C(=O)N[C@@H](CC(N)=O)C(=O)N1)C(N)=O [Example XIII, 1-Desamino-[Q-D-NE-Lys(Gly-Gly-Gly), 9-Ala-NH2]-vasopressin] ([Mpa]YFQNCP[dK]([Gly-Gly-Gly])A-NH2; disulfide 1-6) | – | – | – | – | – | – | – | – | Factor VIII Releasing Activity ([4]; 15 min. after i.v. 10 meg/kg): 115%; Factor VIII Releasing Activity ([4]; 60 min. after i.v. 10 meg/kg): 153%; Factor VIII Releasing Activity ([4]; 120 min. after i.v. 10 meg/kg): 175%; Factor VIII Releasing Activity ([4]; 240 min. after i.v. 10 meg/kg): 210%; Factor VIII Releasing Activity [4, 8]: 105%
9 | NCCCC[C@H](NC(=O)[C@@H]1CCCN1C(=O)[C@@H]1CSSC[C@H](N)C(=O)N[C@@H](Cc2ccccc2)C(=O)N[C@@H](Cc2ccccc2)C(=O)N[C@@H](CCC(N)=O)C(=O)N[C@@H](CC(N)=O)C(=O)N1)C(=O)NCC(N)=O [[2-Phe, 8-Lys]-vasopressin, reference compound] (H-CFFQNCPKG-NH2; disulfide 1-6) | 25 | 25 | 1.0 | 80 | 80 | – | – | – | Ratio of Half-Life of Compound to Parent Half-Life (F) [2, 9]: 1.0
10 | NCCCC[C@H](NC(=O)[C@@H]1CCCN1C(=O)[C@@H]1CSSC[C@H](N)C(=O)N[C@@H](Cc2ccc(O)cc2)C(=O)N[C@@H](Cc2ccccc2)C(=O)N[C@@H](CCC(N)=O)C(=O)N[C@@H](CC(N)=O)C(=O)N1)C(=O)NCC(N)=O [[8-Lys]-vasopressin, reference compound] | 200 | 220 | 1.0 | 220 | 220 | – | – | – | Ratio of Half-Life of Compound to Parent Half-Life (F) [2, 9]: 1.0
11 | NCCCC[C@H](NC(=O)[C@@H]1CCCN1C(=O)[C@@H]1CSSC[C@H](NC(=O)CNC(=O)CNC(=O)CN)C(=O)N[C@@H](Cc2ccc(O)cc2)C(=O)N[C@@H](Cc2ccccc2)C(=O)N[C@@H](CCC(N)=O)C(=O)N[C@@H](CC(N)=O)C(=O)N1)C(=O)NCC(N)=O [tGLVP, N^c<-glycyl-glycyl-glycyl-8-lysine-vasopressin, reference compound] (H-GGGCYFQNCPKG-NH2; disulfide 4-9) | 1.1 | 9.2 | 4.0 | 2.1 | 8.4 | – | – | – | Ratio of Half-Life of Compound to Parent Half-Life (F) [2, 6]: 4.0*
12 | Desmopressin [reference compound] | – | – | – | – | – | 250 | – | – | Factor VIII Releasing Activity ([4]; 15 min. after i.v. 10 meg/kg): 125%; Factor VIII Releasing Activity ([4]; 60 min. after i.v. 10 meg/kg): 185%; Factor VIII Releasing Activity ([4]; 120 min. after i.v. 10 meg/kg): 125%; Factor VIII Releasing Activity ([4]; 240 min. after i.v. 10 meg/kg): 105%; Factor VIII Releasing Activity [4, 8]: 98%; Factor VIII releasing activity (in words) ([4]; comment on Table 6, 4 hours after injection): substantially decreased to zero at 4 hours
